From patent publication US20080300258A1, “ANHYDROUS CIPROFLOXACIN HYDROCHLORIDE” (priority 2007, published 2008)

Settings: eight weeks of storage at 40 degrees C., relative humidity 75%

- water intake on storage: No water intake was observed
Structure (SMILES): O=C(O)c1cn(C2CC2)c2cc(N3CCNCC3)c(F)cc2c1=O [1-cyclopropyl-6-fluoro-1,4-dihydro-4-oxo-7-(1-piperazinyl)-3-quinolinecarboxylic acid]
- decomposition on storage: no significant decomposition was observed
